56 compounds from patent publication US7915268B2, “8-substituted 2-(benzimidazolyl)purine derivatives for immunosuppression” (Wyeth LLC, priority 2006, dated 2011) can be followed below.

The structures appear in SMILES notation.

The target in the test is T1, Jak3 (Homo sapiens, UniProt P52333).
T1 construct: catalytic domain of Jak3 (508aa to 1124aa); made in house; host or cells: Sf9 insect cells (baculovirus, pFastBac 1)
T1 sequence (P52333 508-1124): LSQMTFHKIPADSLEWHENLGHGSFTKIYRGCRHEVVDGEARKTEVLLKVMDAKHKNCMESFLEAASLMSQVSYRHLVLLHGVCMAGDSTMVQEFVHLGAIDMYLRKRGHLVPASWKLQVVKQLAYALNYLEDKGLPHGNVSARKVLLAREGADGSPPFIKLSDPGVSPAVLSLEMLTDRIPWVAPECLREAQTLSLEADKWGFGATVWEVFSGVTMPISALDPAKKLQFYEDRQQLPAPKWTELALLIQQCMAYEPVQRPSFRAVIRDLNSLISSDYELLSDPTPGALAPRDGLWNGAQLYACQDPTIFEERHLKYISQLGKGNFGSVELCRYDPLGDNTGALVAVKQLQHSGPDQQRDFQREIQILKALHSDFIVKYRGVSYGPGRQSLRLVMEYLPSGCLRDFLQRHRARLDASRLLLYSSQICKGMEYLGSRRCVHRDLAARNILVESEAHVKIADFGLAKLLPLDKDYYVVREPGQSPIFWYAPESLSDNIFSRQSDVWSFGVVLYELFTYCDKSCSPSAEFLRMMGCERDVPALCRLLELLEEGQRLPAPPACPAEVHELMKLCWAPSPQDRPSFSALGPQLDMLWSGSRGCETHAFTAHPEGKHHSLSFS
The test is described as follows: Jak3 Kinase Assay (HTRF, GST-Jak3 catalytic domain). It counts as biochemical. The conditions noted are these: 1 μM ATP, 60-min incubation, read-out: Jak 3 (Converted). How it is done:
Human Jak3 cDNA was amplified by PCR. A fragment encoding the catalytic domain of Jak3 (508aa to 1124aa) was ligated with GST at 5′ end. This fused GST-Jak3 DNA fragment was cloned into the EcoRI site of the donor plasmid pFastBac 1 (Life Technologies #10359-016). The transformation, transposition, and transfection of insect cells (Sf9) were performed according to the manufacture's instructions. The cell lysate containing recombinant GST-Jak3 was used in the kinase assay. Anti-GST antibody (10 μg/ml, Sigma #G1417) was coated onto a 384-well plate at 4° C. overnight. Cell lysate containing GST-Jak3 (1:100 dilution) was added to the anti-GST coated plates, and GST-Jak3 was captured by immobilized anti-GST antibody. Testing compounds and substrate mix (50 mM HEPES, pH 7, 0.5 mM Na3VO4, 25 mM MgCl2, 1 mM DTT, 0.005% BSA, 1 μM ATP, and 4.5 μg/ml biotinyl poly-Glu, Ala, Tyr) were added to the plate to initiate the reaction. After a 60-min incubation, the reaction was stopped by 4 mM EDTA, and phosphorylation of biotinyl poly-Glu, Ala, Tyr was detected using 17 μg/ml Cy5-streptavidin (Amersham, #PA92005) and 2.7 μg/ml Europium-conjugated anti-phosphotyrosine antibody (PerkinElmer #AD0069) using homogeneous time-resolved fluorescence (HTRF) technology.

For `N#Cc1ccc2ncn(-c3ncc4nc(-c5cncnc5)n(C5CCOCC5)c4n3)c2c1` [Example 1], the IC50 is less than 0.1 µM.

Turning to `N#Cc1ccc2ncn(-c3ncc4nc(-c5cncnc5)n([C@@H]5CCOc6ccc(F)cc65)c4n3)c2c1` [Example 2], the IC50 is less than 0.1 µM.

Regarding `Cc1ccccc1-c1nc2cnc(-n3cnc4ccc(C#N)cc43)nc2n1C1CCOCC1` [Example 3], the IC50 is 0.1 to 1 µM.

On to `COc1cccc(-c2nc3cnc(-n4cnc5ccc(C#N)cc54)nc3n2C2CCOCC2)c1` [Example 4], for which the IC50 is 0.1 to 1 µM.

As for `N#Cc1ccc2ncn(-c3ncc4nc(-c5cccnc5)n([C@@H]5CCOc6c(F)cccc65)c4n3)c2c1` [Example 5], the IC50 is less than 0.1 µM.

Take `CC(=O)Nc1ccc(-c2nc3cnc(-n4cnc5ccc(C#N)cc54)nc3n2C2CCOCC2)cc1` [Example 7]: the IC50 is less than 0.1 µM.

As to `N#Cc1ccc2ncn(-c3ncc4nc(-c5cccc(O)c5)n(C5CCOCC5)c4n3)c2c1` [Example 8], the IC50 is less than 0.1 µM.

With `N#Cc1ccc2ncn(-c3ncc4nc(-c5cnc(N)nc5)n(C5CCOCC5)c4n3)c2c1` [Example 9], the IC50 was less than 0.1 µM.

As to `N#Cc1ccc2ncn(-c3ncc4nc(-c5cnc(O)nc5O)n(C5CCOCC5)c4n3)c2c1` [Example 10], the IC50 was less than 0.1 µM.

`N#Cc1ccc2ncn(-c3ncc4nc(-c5cncnc5)n([C@@H]5CCOc6ccccc65)c4n3)c2c1` [Example 11]: the IC50 was less than 0.1 µM.

On to `Cc1cccc(-c2nc3cnc(-n4cnc5ccc(C#N)cc54)nc3n2C2CCOCC2)c1` [Example 12], for which the IC50 lay in the range of 0.1 to 1 µM.

Consider `CS(=O)(=O)Nc1cccc(-c2nc3cnc(-n4cnc5ccc(C#N)cc54)nc3n2C2CCOCC2)c1` [Example 14], for which the IC50 is less than 0.1 µM.

As for `N#Cc1ccc2ncn(-c3ncc4nc(-c5cncnc5)n([C@@H]5CCOc6c(F)cc(F)cc65)c4n3)c2c1` [Example 15], the IC50 was less than 0.1 µM.

Turning to `N#Cc1ccc2ncn(-c3ncc4nc(-c5ccccc5)n(C5CCOCC5)c4n3)c2c1` [Example 16], the IC50 was less than 0.1 µM.

In the case of `CN(C)c1ncc(-c2nc3cnc(-n4cnc5ccc(C#N)cc54)nc3n2C2CCOCC2)cn1` [Example 17], the IC50 is less than 0.1 µM.

Take `COc1ccccc1-c1nc2cnc(-n3cnc4ccc(C#N)cc43)nc2n1C1CCOCC1` [Example 18]: the IC50 was in the range of 0.1 to 1 µM.

For the compound `COc1ccc(-c2nc3cnc(-n4cnc5ccc(C#N)cc54)nc3n2C2CCOCC2)cc1` [Example 19], the IC50 lay in the range of 0.1 to 1 µM.

Regarding `CC(C)Sc1nccc(-c2nc3cnc(-n4cnc5ccc(C#N)cc54)nc3n2[C@@H]2CCOc3c(F)ccc(F)c32)n1` [Example 20], the IC50 lay within 0.1 to 1 µM.

Consider `COC1CCN([C@H]2C(C)=Nc3cnc(-n4cnc5ccc(F)cc54)nc32)CC1` [Example 21], for which the IC50 lay in the range of 0.1 to 1 µM.

With `CCCc1nc2cnc(-n3cnc4ccc(C#N)cc43)nc2n1C1CCOc2ccc(F)cc21` (centres unmarked) [Example 22], the IC50 is less than 0.1 µM.

Regarding `CO[C@H]1CC[C@H](n2c(C)nc3cnc(-n4cnc5ccc(C#N)cc54)nc32)CC1` [Example 23], the IC50 was 0.1 to 1 µM.

With `Cc1nc2cnc(-n3cnc4ccc(C#N)cc43)nc2n1C1CCOc2ccc(F)cc21` (centres unmarked) [Example 24], the IC50 is less than 0.1 µM.

With `Cc1nc2cnc(-n3cnc4ccc(C#N)cc43)nc2n1C1CCOCC1` [Example 25, 3-(8-Methyl-9-(tetrahydro-2H-pyran-4-yl)-9H-purin-2-yl)-3H-benzo[d]imidazole-5-carbonitrile], the IC50 is less than 0.1 µM.

For `CO[C@H]1CC[C@H](n2c(C)nc3cnc(-n4cnc5ccc(OC(F)(F)F)cc54)nc32)CC1` [Example 26], the IC50 was in the range of 0.1 to 1 µM.

Turning to `COCCC(C)n1c(-c2c[nH]c3ccccc23)nc2cnc(-n3cnc4ccc(F)cc43)nc21` (centres unmarked) [Example 27], the IC50 fell in the range of 0.1 to 1 µM.

Take `Oc1cccc(-c2nc3cnc(-n4cnc5ccc(F)cc54)nc3n2[C@@H]2CCOc3c(F)cccc32)c1` [Example 28]: the IC50 lay within 0.1 to 1 µM.

As for `CO[C@H]1CC[C@H](n2c(-c3cncnc3)nc3cnc(-n4cnc5ccc(Cl)cc54)nc32)CC1` [Example 29], the IC50 was in the range of 0.1 to 1 µM.

As for `Fc1ccc2ncn(-c3ncc4nc(-c5cnc[nH]5)n(C5CCOCC5)c4n3)c2c1` [Example 30], the IC50 was 0.1 to 1 µM.

On to `COC(=O)c1cccc(-c2nc3cnc(-n4cnc5ccc(F)cc54)nc3n2C2CCOCC2)c1` [Example 31], for which the IC50 was in the range of 0.1 to 1 µM.

For `Fc1ccc2ncn(-c3ncc4nc(-c5ccncc5)n(C5CCOCC5)c4n3)c2c1` [Example 32], the IC50 was less than 0.1 µM.

For the compound `Fc1ccc2ncn(-c3ncc4nc(-c5ncc[nH]5)n(C5CCOCC5)c4n3)c2c1` [Example 33, 2-(6-Fluoro-1H-benzo[d]imidazol-1-yl)-8-(1H-imidazol-2-yl)-9-(tetrahydro-2H-pyran-4-yl)-9H-purine], the IC50 lay within 0.1 to 1 µM.

For `CC(C)(C)c1nc2cnc(-n3cnc4ccc(F)cc43)nc2n1C1CCOCC1` [Example 34], the IC50 was less than 0.1 µM.

On to `Fc1ccc2ncn(-c3ncc4nc(-c5ccco5)n(C5CCOCC5)c4n3)c2c1` [Example 35], for which the IC50 was less than 0.1 µM.

In the case of `Fc1ccc2ncn(-c3ncc4nc(-c5ccc(Br)nc5)n(C5CCOCC5)c4n3)c2c1` [Example 36], the IC50 is less than 0.1 µM.

`Fc1ccc2ncn(-c3ncc4nc(-c5cccnc5)n(C5CCOCC5)c4n3)c2c1` [Example 37]: the IC50 was less than 0.1 µM.

With `Fc1ccc2ncn(-c3ncc4nc(-c5cncnc5)n(C5CCOCC5)c4n3)c2c1` [Example 38], the IC50 was less than 0.1 µM.

In the case of `Cn1cncc1-c1nc2cnc(-n3cnc4ccc(F)cc43)nc2n1C1CCOCC1` [Example 39], the IC50 is less than 0.1 µM.

Turning to `Oc1cccc(-c2nc3cnc(-n4cnc5ccc(Cl)cc54)nc3n2C2CCOCC2)c1` [Example 40], the IC50 is less than 0.1 µM.

On to `Cc1cccc(-c2nc3cnc(-n4cnc5ccc(F)cc54)nc3n2C2CCOCC2)n1` [Example 41], for which the IC50 was greater than 1 µM.

Consider `Nc1nccc(-c2nc3cnc(-n4cnc5ccc(Cl)cc54)nc3n2C2CCOCC2)n1` [Example 43], for which the IC50 was less than 0.1 µM.

With `Oc1ccccc1-c1nc2cnc(-n3cnc4ccc(F)cc43)nc2n1C1CCOCC1` [Example 44], the IC50 fell in the range of 0.1 to 1 µM.

`O=C(O)c1cccc(-c2nc3cnc(-n4cnc5ccc(F)cc54)nc3n2C2CCOCC2)c1` [Example 45]: the IC50 is less than 0.1 µM.

`Fc1ccc2ncn(-c3ncc4nc(-c5ccc(F)nc5)n(C5CCOCC5)c4n3)c2c1` [Example 46]: the IC50 was less than 0.1 µM.

Regarding `Fc1ccc2ncn(-c3ncc4nc(-c5ccc(Cl)nc5)n(C5CCOCC5)c4n3)c2c1` [Example 47], the IC50 is less than 0.1 µM.

As to `Fc1ccc2ncn(-c3ncc4nc(-c5nccs5)n(C5CCOCC5)c4n3)c2c1` [Example 48], the IC50 was 0.1 to 1 µM.

With `Fc1ccc2ncn(-c3ncc4nc(-c5ccncc5)n([C@@H]5CCOc6c(F)cccc65)c4n3)c2c1` [Example 49], the IC50 is less than 0.1 µM.

Consider `Cn1cccc1-c1nc2cnc(-n3cnc4ccc(F)cc43)nc2n1C1CCOCC1` [Example 50], for which the IC50 fell in the range of 0.1 to 1 µM.

On to `Fc1ccc2ncn(-c3ncc4nc(-c5ccc(C(F)(F)F)nc5)n(C5CCOCC5)c4n3)c2c1` [Example 51], for which the IC50 is less than 0.1 µM.

As for `Cc1ccc(-c2nc3cnc(-n4cnc5ccc(F)cc54)nc3n2C2CCOCC2)o1` [Example 52], the IC50 is 0.1 to 1 µM.

Consider `Nc1nccc(-c2nc3cnc(-n4cnc5ccc(F)cc54)nc3n2C2CCOCC2)n1` [Example 53], for which the IC50 was less than 0.1 µM.

Turning to `Oc1ccc(-c2nc3cnc(-n4cnc5ccc(F)cc54)nc3n2C2CCOCC2)cc1` [Example 54], the IC50 was 0.1 to 1 µM.

As for `Fc1ccc2ncn(-c3ncc4nc(-c5cncnc5)n([C@@H]5CCOc6c(F)cccc65)c4n3)c2c1` [Example 55], the IC50 is less than 0.1 µM.

Turning to `Fc1ccc2ncn(C3N=c4c(nc(-c5ccnc6ccccc56)n4C4CCOCC4)=CN3)c2c1` (centres unmarked) [Example 56], the IC50 is greater than 1 µM.

As for `Fc1ccc2ncn(-c3ncc4nc(-c5cccc(Br)c5)n(C5CCOCC5)c4n3)c2c1` [Example 57], the IC50 is greater than 1 µM.

In the case of `Fc1ccc2ncn(-c3ncc4nc(-c5cccc(OC(F)(F)F)c5)n(C5CCOCC5)c4n3)c2c1` [Example 58], the IC50 is greater than 1 µM.

Regarding `Nc1ncc(-c2nc3cnc(-n4cnc5ccc(F)cc54)nc3n2C2CCOCC2)cn1` [Example 59], the IC50 was less than 0.1 µM.
